Assay results as given in patent publication US8372886B2, “Treatment of renal disorders, diabetic nephropathy and dyslipidemias” (Kiacta Sarl, priority 2005, dated 2013).

Tested on: Zucker Diabetic Fatty rat (ZDF)
Assay: In vivo preventive study of renal function in the Zucker Diabetic Fatty rat model of diabetic nephropathy
Text: The compound 1,3 Propanedisulfonic Acid Disodium Salt (PDS) was selected for a preventive study of renal function in the Zucker rat (ZDF) mode.
A leading study model for DN is the inbred Zucker Diabetic Fatty rat (ZDF). Given a diabetogenic diet, the ZDF rat will closely mimic human adult onset diabetes (Type 2) and related complications including glomerulosclerosis and renal damage earlier than when fed a normal diet (i.e. 14-18 weeks of age). In addition, obesity, mild hypertension, hypertriglyceridemia, hypercholesterolemia, fasting hyperglycemia, impaired glucose tolerance and hyperinsulinemia, are all major phenotypes featured in the ZDF rat.
This pre-clinical investigation evaluates the role and efficacy of 1,3 Propanedisulfonic Acid Disodium Salt (PDS) (Eprodisate Disodium) as a preventive treatment for DN and related pathophysiology in the ZDF rat model. The primary measured outcome is the attenuation/reversal of creatinine clearance deterioration and of proteinuria. The secondary measured outcome is the impact on the metabolic status in this model.
Thirty-two, 6 week-old male ZDF rats (Charles River, St. Constant, Canada) were randomized in 2 groups, Treated (PDS; in 1% sucrose drinking solution) and Control (1% sucrose drinking solution), and studied for a period of 8 weeks. […] All rats were fed a high sucrose/high fat diabetogenic diet (Harlan™ TD95217). Body weight, food and drinking solution consumption were measured on a daily basis. Twelve rats from each group were individually housed in metabolic cages for a period of 24 hours once a week. During week 2, 3, 4 and 5, rats placed in metabolic cages received drinking solution but were placed in fasting condition, whereas during weeks 1, […], 6, 7, and 8, rats were given ad libitum access to food and drinking solution. At the end of each metabolic cage session, urine output was measured, and blood and urine samples were collected in order to quantify serum and/or urine levels of PDS, creatinine, protein, uric acid, triglycerides, glucose, and electrolytes. These variables were used to calculate creatinine clearance (CCr) and proteinuria, and to evaluate general metabolic and renal health status.
Results for each time point are represented as mean±SE. Trend statistics are calculated by repeated measures ANOVA, with p<0.02 considered statistically significant.

[1] = preliminary evaluation, rats sacrificed at about 9 weeks of treatment, not shown

SMILES: O=S(=O)([O-])CCCS(=O)(=O)[O-].[Na+].[Na+] [PDS, 1,3 Propanedisulfonic Acid Disodium Salt]
- uric acid serum levels (ZDF rats, summary statement of the study): reduction of uric acid serum levels
- tolerability (male ZDF rats, PDS in 1% sucrose drinking solution, adjusted higher dose, satient condition): well tolerated
- serum triglyceride levels versus Control animals (male ZDF rats, satient condition, after 8 weeks of treatment, p=0.0067, FIGS. 3A and 3B): reduced serum triglyceride levels
- degree of decline of creatinine clearance normalized over body weight (CCr/BW) versus Control animals (male ZDF rats, satient condition, after 8 weeks of treatment, p=0.012, FIGS. 2A and 2B): significantly lowered the degree of decline
- uric acid clearance, effect of treatment over the study (male ZDF rats, satient condition, over 8 weeks, FIG. 4A): trend in the positive effect
- uric acid clearance compared to the control group at week 8 (male ZDF rats, satient condition, week 8, FIG. 4B): significant difference compared to the control group
- kidney mass versus control rats [1]: greater kidney mass than control rats
- mass of the heart ventricles versus control rats [1]: slightly lower ventricular mass
